The values that follow come from patent publication US10227344B2, “CK2 inhibitors, compositions and methods thereof” (Polaris Pharmaceuticals, Inc., priority 2016, dated 2019).

SMILES strings stand for the structures.

One assay deals with BxPC3. The assay can be described thus: Cancer cell panel, cell viability (resazurin): Pancreatic, BxPC3. Format: cell-based. Particulars: Homo sapiens, BXPC-3, 72 hours, single agent, read-out: Example 3 IC50.
The next assay has as its system SKOV-3. The assay can be described thus: Cancer cell panel, cell viability (resazurin): Ovarian, SKOV-3. Type of assay: cell-based. Particulars: Homo sapiens, SK-OV-3; SKOV-3 (Ovarian), 72 hours, single agent; read-out: Example 3 IC50. For orientation: The colour change of resazurin is a common sign of viable cells or microbes.
The subject of the next assay is T47D. Kind of assay: Cancer cell panel, cell viability (resazurin): Breast, T47D. Type of assay: cell-based. Particulars: Homo sapiens, 72 hours, single agent, read-out: Example 3 IC50.
The subject of another assay is ACHN. The assay can be described thus: Cancer cell panel, cell viability (resazurin): Renal, ACHN. Format: cell-based. Particulars: Homo sapiens, 72 hours, single agent, read-out: Example 3 IC50.
Another assay deals with ZR-75-1. The assay can be described thus: Cancer cell panel, cell viability (resazurin): Breast, ZR-75-1. Format: cell-based. As to conditions: Homo sapiens; ZR-75-1 (Breast), 72 hours, single agent; read-out: Example 3 IC50.
For a further assay, the target named is purified CK2α enzyme (Homo sapiens, UniProt P68400). The assay can be described thus: CK2 Protein Kinase Inhibition Assay (coupled PK/LDH assay). Type of assay: biochemical. As to conditions: CK2 enzyme 25 nM, 100 μM ATP, 37° C., Morrison equation. The essentials: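 Purified CK2α at 25 nM final, 1.5 mM peptide substrate, 100 μM ATP, pH 8.25 Tris buffer; compounds pre-incubated 10 min at 37° C. ADP coupled via PK/LDH to NADH loss at 340 nm over 30 min, 37° C. Ki from rate versus concentration by Morrison equation, triplicate points.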

In the next assay the test system is Raji. The assay can be described thus: Cancer cell panel, cell viability (resazurin): Burkitt's Lymphoma, Raji. Type of assay: cell-based. As to conditions: Homo sapiens, 72 hours, single agent, read-out: Example 3 IC50.
The test system of another assay is MDA-MB-157. The assay can be described thus: Cancer cell panel, cell viability (resazurin): Breast, MDA-MB-157. Type of assay: cell-based. As to conditions: Homo sapiens; MDA-MB-157 (Breast), 72 hours, single agent; read-out: Example 3 IC50.
In a further assay the test system is RPMI8226. Kind of assay: Cancer cell panel, cell viability (resazurin): multiple myeloma, RPMI8226. Format: cell-based. Particulars: Homo sapiens, RPMI-8226, 72 hours, single agent, read-out: Example 3 IC50.
For another assay, the system named is H460. Kind of assay: Cancer cell panel, cell viability (resazurin): NSCLC, H460. Type of assay: cell-based. Particulars: Homo sapiens, NCI-H460, 72 hours, single agent, read-out: Example 3 IC50.
The test system of a further assay is H23. Kind of assay: Cancer cell panel, cell viability (resazurin): NSCLC, H23. Type of assay: cell-based. Particulars: Homo sapiens, NCI-H23, 72 hours, single agent, read-out: Example 3 IC50.
The subject of a further assay is U87MG. The assay can be described thus: Cancer cell panel, cell viability (resazurin): Glioblastoma, U87MG. Type of assay: cell-based. As to conditions: Homo sapiens, U-87 MG, 72 hours, single agent, read-out: Example 3 IC50.
The next assay has as its system 786-O. The assay can be described thus: Cancer cell panel, cell viability (resazurin): Renal, 786-O. Format: cell-based. As to conditions: Homo sapiens, 786-0; 786-O (Renal), 72 hours, single agent; read-out: Example 3 IC50.

purified CK2α enzyme, sequence (P68400 whole entry): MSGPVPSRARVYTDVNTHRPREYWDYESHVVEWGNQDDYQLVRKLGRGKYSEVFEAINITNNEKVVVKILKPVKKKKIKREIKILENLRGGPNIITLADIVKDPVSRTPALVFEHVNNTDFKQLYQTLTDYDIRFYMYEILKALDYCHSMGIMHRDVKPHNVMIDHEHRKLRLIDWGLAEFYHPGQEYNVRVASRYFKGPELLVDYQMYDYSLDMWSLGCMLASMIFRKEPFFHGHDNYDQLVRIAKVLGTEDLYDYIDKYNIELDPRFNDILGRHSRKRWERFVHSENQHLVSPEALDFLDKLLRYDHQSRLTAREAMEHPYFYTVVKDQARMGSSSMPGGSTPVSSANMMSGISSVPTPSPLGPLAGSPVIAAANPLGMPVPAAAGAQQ
Method for H460: (§1) Cells were plated in 96-well plates and treated for 72 hours with a serially diluted CK2 inhibitor or anti-cancer drug or their combination. The suspension cell lines were treated right after plating, while the adherent cells were allowed to attach overnight prior to the start of the treatment.
(§2) Cell viability was determined by adding resazurin to cell cultures and measuring fluorescence with a plate reader. Relative cell viability was calculated by dividing the cell viability signal from a test sample by that of a non-treated control. […] Bliss Independence and Highest Single Agent models were used to determine if there is synergy, additivity or antagonism between the CK2 inhibitor and an anti-cancer drug.
Method for RPMI8226: as §1, §2
Method for Raji: as §1, §2
Method for U87MG: as §1, §2
Method for ZR-75-1: as §1, §2

With `C[S@+]([O-])Cc1cc(Nc2cc(NC3CC3)n3ncc(C#N)c3n2)ccc1Cl` [Example 3, (S)(+)-5-((4-Chloro-3-((methylsulfinyl)methyl)phenyl)amino)-7-(cyclopropylamino)pyrazolo[1,5-a]pyrimidine-3-carbonitrile], the IC50 in the assay on BxPC3 is 3.6 µM; with SKOV-3 it was 1380 nM; in the assay on T47D, 861 nM; in the assay with ACHN, 409 nM; with ZR-75-1, 323 nM; in the assay with Raji, 249 nM. Further, the IC50 was 447 nM in the assay with MDA-MB-157; 233 nM with RPMI8226; 350 nM in the assay on H460; 575 nM in the assay with H23; 1120 nM with U87MG; 2620 nM in the assay on 786-O. This compound also returned a Ki at purified CK2α enzyme of less than 2.5 nM.

As usually defined, the IC50 is the concentration that gives 50% inhibition. Broadly, the Ki is the equilibrium dissociation constant of an inhibitor or competing ligand from its target. A higher Ki goes with lower affinity.
